Activity calls are given as the source filed them. The calls are words filed in the database; no cut-off is given here.
Experiments:
U-87MG ATCC [1] = conditions: Homo sapiens, dose 5-50 mg/kg, route po, time 3.0 day
NCI-H441 [2] = experiment: Inhibition of cell migration in HGF-stimulated human NCI-H441 cells over expressing c-Met incubated for 48 hrs by Matrigel based analysis; conditions: NCI-H441, 48 h
U-87MG ATCC [3] = conditions: Homo sapiens, dose 5-50 mg/kg, route po, time 3.0 day; remark: listed apart in the source
[4] = Inhibition of c-Met R988C mutant phosphorylation in human NCI-H69 cells assessed as reduction in HGF-stimulated c-Met phosphorylation incubated for 1 hr by ELISA analysis; conditions: NCI-H69, 1 h
GTL 16 cell line [5] = experiment: Antitumor activity against human GTL 16 cells xenografted in athymic nu/nu mouse assessed as tumor growth inhibition at 1.5 mg/kg, sc minipump administered for 14 days relative to control; conditions: GTL 16, 336 h, read-out: TGI
COLO 205 = experiment: Antiproliferative activity against human COLO 205 cells over expressing c-Met assessed as reduction in cell viability after 48 to 72 hrs by MTT assay
U-87 MG [6] = conditions: Homo sapiens; U-87MG ATCC; dose 5-50 mg/kg, route po, time 3.0 day
SLC34A2-ROS1 = SLC34A2-ROS1 (Homo sapiens, UniProt P08922); experiment: Inhibition of SLC34A2-Ros phosphorylation in human HCC87 cells incubated for 1 hr by sandwich ELISA analysis
[7] = target: Tyrosine-protein kinase Mer (Homo sapiens, UniProt Q12866); experiment: Inhibition of MER expressed in HEK293 cells assessed as reduction in Gas6-stimulated MER phosphorylation incubated for 1 hr by sandwich ELISA analysis
U-87MG ATCC [8] = conditions: Homo sapiens, dose 5-50 mg/kg, route po, time 3.0 day; remark: listed apart in the source
SW-620 [9] = experiment: Antiproliferative activity against human SW620 cells over expressing c-Met assessed as reduction in cell viability after 48 to 72 hrs by MTT assay
U-87 MG [10] = experiment: Antitumor activity against human U-87 MG cells xenografted in athymic nu/nu mouse assessed as tumor growth inhibition at 10 mg/kg, po for 9 days relative to control; conditions: 216 h, read-out: TGI
HT-29 [11] = conditions: Homo sapiens, dose 50.0 mg/kg/day, route po, time 21.0 day
NCI-H1993 = experiment: Antiproliferative activity against human NCI-H1993 cells over expressing c-Met assessed as reduction in cell viability after 48 to 72 hrs by MTT assay
SW-620 [12] = conditions: Homo sapiens, dose 40.0 mg/kg/day, route po, time 25.0 day
GTL 16 [13] = conditions: Homo sapiens, dose 3-30 mg/kg, route po, time 4.0 day
HCT-116 = experiment: Antiproliferative activity against human HCT-116 cells over expressing c-Met assessed as reduction in cell viability after 48 to 72 hrs by MTT assay
MDA-MB-231 = experiment: Antiproliferative activity against human MDA-MB-231 cells over expressing c-Met assessed as reduction in cell viability after 48 to 72 hrs by MTT assay
[14] = target: Hepatocyte growth factor receptor (Mus musculus, UniProt P16056); experiment: Inhibition of c-Met phosphorylation in HGF-stimulated mIMCD3 cells incubated for 1 hr by sandwich ELISA analysis
Insulin receptor = Insulin receptor (Homo sapiens, UniProt P06213); experiment: Inhibition of Insulin receptor expressed in HEK293 cells assessed as reduction insulin-stimulated INSR phosphorylation incubated for 1 hr by sandwich ELISA analysis
MDA-MB-468 = experiment: Antiproliferative activity against human MDA-MB-468 cells over expressing c-Met assessed as reduction in cell viability after 48 to 72 hrs by MTT assay
NCI-H292 = experiment: Antitumor activity against human NCI-H292 cells xenografted in athymic nu/nu mouse assessed as tumor growth inhibition at 50 mg/kg/day, po for 31 days relative to control; conditions: 744 h, read-out: TGI
[15] = target: Hepatocyte growth factor receptor (Canis lupus familiaris, UniProt Q75ZY9); experiment: Inhibition of c-Met phosphorylation in HGF-stimulated dog MDCK cells incubated for 1 hr by sandwich ELISA analysis
U-87 MG [16] = experiment: Antitumor activity against human U-87 MG cells xenografted in athymic nu/nu mouse assessed as tumor growth inhibition at 3 mg/kg, po for 9 days relative to control; conditions: 216 h, read-out: TGI
GTL 16 cell line [17] = experiment: Antitumor activity against human GTL 16 cells xenografted in athymic nu/nu mouse assessed as tumor growth inhibition at 15 mg/kg, sc minipump administered for 14 days relative to control; conditions: GTL 16, 336 h, read-out: TGI
NCI-H441 [18] = experiment: Inhibition of cell invasion in HGF-stimulated human NCI-H441 cells over expressing c-Met incubated for 48 hrs by Matrigel based analysis; conditions: NCI-H441, 48 h
GTL 16 cell line [19] = experiment: animal or person; conditions: Mus musculus, GTL 16, po, 384 h, read-out: TGI
Description: Antitumor activity against human GTL 16 cells xenografted in athymic nu/nu mouse assessed as tumor growth inhibition at 30 mg/kg, po administered for 16 days relative to control

HCC1143 = experiment: Antiproliferative activity against human HCC1143 cells over expressing c-Met assessed as reduction in cell viability after 48 to 72 hrs by MTT assay
HT-29 [20] = conditions: Homo sapiens, dose 50.0 mg/kg/day, route po, time 21.0 day; remark: listed apart in the source
GTL 16 cell line [21] = experiment: Antitumor activity against human GTL 16 cells xenografted in athymic nu/nu mouse assessed as tumor growth inhibition at 1 mg/kg, po administered for 16 days relative to control; conditions: GTL 16, po, 384 h, read-out: TGI
GTL 16 [22] = conditions: Homo sapiens, dose 0.3-10 mg/kg, route po, time 4.0 day
GTL 16 cell line [23] = experiment: Antitumor activity against human GTL 16 cells xenografted in athymic nu/nu mouse assessed as tumor growth inhibition at 5 mg/kg, sc minipump administered for 14 days relative to control; conditions: GTL 16, 336 h, read-out: TGI
GTL 16 [24] = conditions: Homo sapiens, dose 0.3-10 mg/kg, route po, time 4.0 day; remark: listed apart in the source

Tyrosine-protein kinase Mer, sequence (Q12866 whole entry): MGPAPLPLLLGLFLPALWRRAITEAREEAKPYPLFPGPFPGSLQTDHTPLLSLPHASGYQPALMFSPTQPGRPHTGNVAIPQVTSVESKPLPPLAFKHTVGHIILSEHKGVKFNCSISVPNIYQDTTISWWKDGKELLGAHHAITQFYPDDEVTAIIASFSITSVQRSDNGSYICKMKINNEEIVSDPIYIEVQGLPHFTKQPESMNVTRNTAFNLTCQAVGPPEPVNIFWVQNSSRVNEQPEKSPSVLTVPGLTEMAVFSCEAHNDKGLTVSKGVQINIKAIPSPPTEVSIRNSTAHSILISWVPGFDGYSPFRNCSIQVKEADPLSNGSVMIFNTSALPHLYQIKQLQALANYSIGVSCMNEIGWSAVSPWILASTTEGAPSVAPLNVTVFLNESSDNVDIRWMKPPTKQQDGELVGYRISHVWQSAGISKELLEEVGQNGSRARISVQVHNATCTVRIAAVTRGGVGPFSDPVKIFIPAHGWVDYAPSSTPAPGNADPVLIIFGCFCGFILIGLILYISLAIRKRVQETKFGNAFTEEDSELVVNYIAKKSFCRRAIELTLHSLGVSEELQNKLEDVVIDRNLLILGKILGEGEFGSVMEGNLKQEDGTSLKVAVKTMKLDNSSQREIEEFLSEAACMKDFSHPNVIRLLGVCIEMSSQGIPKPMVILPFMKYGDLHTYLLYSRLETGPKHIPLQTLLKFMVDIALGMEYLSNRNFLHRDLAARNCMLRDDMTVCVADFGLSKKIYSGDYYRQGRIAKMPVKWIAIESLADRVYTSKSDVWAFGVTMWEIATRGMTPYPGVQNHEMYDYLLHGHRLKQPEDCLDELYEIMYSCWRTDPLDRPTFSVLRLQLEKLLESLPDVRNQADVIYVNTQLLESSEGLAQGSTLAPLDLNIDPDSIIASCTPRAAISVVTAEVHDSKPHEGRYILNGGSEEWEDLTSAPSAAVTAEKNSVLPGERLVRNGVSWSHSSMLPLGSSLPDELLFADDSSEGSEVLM
SLC34A2-ROS1, sequence (P08922 whole entry): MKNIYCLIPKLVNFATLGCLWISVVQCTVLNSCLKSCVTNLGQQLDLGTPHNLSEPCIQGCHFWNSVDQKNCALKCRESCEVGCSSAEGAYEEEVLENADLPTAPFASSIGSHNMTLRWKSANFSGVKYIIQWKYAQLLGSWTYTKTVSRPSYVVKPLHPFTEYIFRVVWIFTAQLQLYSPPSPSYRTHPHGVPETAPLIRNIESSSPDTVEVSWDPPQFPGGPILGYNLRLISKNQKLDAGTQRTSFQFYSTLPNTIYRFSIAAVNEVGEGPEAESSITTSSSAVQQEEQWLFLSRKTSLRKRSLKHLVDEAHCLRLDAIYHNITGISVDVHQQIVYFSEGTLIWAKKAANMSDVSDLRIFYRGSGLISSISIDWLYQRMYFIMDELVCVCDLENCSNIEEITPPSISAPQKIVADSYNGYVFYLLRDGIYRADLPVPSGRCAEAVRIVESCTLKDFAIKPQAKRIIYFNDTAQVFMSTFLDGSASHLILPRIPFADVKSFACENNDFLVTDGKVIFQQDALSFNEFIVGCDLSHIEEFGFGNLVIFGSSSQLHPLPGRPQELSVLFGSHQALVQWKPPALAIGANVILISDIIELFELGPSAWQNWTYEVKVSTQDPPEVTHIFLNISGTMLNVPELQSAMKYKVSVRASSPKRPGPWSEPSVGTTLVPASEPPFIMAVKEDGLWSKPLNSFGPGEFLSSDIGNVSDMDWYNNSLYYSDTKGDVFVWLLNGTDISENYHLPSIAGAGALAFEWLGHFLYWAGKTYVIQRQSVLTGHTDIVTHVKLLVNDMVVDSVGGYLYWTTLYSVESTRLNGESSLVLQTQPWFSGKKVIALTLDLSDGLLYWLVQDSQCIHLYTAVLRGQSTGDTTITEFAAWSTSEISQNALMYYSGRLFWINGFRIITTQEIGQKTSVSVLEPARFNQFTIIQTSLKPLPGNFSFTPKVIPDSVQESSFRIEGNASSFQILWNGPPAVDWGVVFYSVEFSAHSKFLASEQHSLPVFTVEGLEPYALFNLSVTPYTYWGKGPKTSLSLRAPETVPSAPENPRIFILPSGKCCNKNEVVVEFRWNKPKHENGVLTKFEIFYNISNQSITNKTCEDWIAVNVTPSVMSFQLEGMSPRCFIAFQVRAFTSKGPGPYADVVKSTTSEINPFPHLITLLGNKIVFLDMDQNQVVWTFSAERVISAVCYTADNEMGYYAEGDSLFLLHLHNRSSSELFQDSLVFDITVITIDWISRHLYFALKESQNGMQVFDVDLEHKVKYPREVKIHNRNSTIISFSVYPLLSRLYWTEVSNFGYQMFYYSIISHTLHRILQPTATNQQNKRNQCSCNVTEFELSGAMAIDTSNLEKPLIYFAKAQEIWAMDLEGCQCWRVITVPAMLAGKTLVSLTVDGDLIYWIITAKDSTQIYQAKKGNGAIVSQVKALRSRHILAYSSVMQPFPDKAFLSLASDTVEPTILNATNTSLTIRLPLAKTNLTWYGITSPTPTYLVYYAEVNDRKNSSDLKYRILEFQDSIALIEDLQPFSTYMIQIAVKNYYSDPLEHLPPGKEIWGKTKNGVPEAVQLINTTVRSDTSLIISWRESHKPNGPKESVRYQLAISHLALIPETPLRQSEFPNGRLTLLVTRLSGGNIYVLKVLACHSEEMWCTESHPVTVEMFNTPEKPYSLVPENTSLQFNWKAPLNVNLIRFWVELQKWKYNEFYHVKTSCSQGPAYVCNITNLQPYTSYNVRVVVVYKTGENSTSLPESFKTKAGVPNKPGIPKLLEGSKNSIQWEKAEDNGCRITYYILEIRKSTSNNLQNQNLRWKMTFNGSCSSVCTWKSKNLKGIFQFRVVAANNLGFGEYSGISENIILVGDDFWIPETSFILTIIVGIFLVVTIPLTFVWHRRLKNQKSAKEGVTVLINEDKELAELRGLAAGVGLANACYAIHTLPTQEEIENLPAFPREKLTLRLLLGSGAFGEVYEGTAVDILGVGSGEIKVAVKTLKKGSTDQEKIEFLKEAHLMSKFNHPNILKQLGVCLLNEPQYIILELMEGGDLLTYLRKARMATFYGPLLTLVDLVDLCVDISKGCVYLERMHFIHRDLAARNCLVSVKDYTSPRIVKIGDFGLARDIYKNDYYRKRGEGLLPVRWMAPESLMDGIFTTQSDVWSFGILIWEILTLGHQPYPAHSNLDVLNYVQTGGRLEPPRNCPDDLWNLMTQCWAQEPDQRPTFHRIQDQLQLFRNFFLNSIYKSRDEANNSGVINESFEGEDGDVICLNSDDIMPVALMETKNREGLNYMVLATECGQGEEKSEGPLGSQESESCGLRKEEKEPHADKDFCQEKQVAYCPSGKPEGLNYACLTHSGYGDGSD
SLC34A2-ROS1, sequence (O95436 whole entry, further chain): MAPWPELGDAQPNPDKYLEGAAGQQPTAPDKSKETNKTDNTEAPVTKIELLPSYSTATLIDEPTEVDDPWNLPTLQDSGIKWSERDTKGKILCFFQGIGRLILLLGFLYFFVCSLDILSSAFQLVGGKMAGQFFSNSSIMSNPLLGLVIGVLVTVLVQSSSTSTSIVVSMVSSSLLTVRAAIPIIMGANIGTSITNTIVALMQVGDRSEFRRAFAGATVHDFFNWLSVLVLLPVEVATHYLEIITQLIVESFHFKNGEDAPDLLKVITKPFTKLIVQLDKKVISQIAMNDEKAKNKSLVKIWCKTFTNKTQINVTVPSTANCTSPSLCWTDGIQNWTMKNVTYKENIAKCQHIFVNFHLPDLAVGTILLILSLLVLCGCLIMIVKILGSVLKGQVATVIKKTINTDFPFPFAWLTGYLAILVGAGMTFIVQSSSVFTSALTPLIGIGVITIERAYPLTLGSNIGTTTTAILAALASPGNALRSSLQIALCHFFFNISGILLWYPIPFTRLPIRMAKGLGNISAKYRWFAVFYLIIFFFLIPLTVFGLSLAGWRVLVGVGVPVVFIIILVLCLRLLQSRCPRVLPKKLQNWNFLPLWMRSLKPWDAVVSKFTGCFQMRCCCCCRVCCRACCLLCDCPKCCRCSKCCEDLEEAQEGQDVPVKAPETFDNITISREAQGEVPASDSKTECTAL

OCCn1cc(-c2cnc3nnn(Cc4ccc5ncccc5c4)c3n2)cn1 [PF-04217903]
inhibition (U-87MG ATCC [1]): Active
IC50 (NCI-H441 [2]): 11 nM
inhibition (U-87MG ATCC [3]): inactive
IC50 [4]: 6.4 nM
inhibition in vivo at 1.5 mg/kg (GTL 16 cell line [5]): 63%
IC50 (COLO 205): > 10000 nM
inhibition (U-87 MG [6]): Active
IC50 (SLC34A2-ROS1): > 10000 nM
IC50 [7]: > 10000 nM
inhibition (U-87MG ATCC [8]): Active
IC50 (SW-620 [9]): > 10000 nM
inhibition in vivo at 10 mg/kg (U-87 MG [10]): 68%
inhibition (HT-29 [11]): Active
IC50 (NCI-H1993): 30 nM
inhibition (SW-620 [12]): Active
inhibition (GTL 16 [13]): Dose-Dependent Effect
IC50 (HCT-116): > 10000 nM
IC50 (MDA-MB-231): > 10000 nM
IC50 [14]: 6.9 nM
IC50 (Insulin receptor): > 10000 nM
IC50 (MDA-MB-468): > 10000 nM
inhibition in vivo at 50 mg/kg/day (NCI-H292): 39%
IC50 [15]: 9.5 nM
inhibition in vivo at 3 mg/kg (U-87 MG [16]): 48%
inhibition in vivo at 15 mg/kg (GTL 16 cell line [17]): 93%
IC50 (NCI-H441 [18]): 12.5 nM
inhibition in vivo at 30 mg/kg (GTL 16 cell line [19]): 100%
IC50 (HCC1143): > 10000 nM
inhibition (HT-29 [20]): inactive
inhibition in vivo at 1 mg/kg (GTL 16 cell line [21]): 64%
inhibition (GTL 16 [22]): Dose-Dependent Effect
inhibition in vivo at 5 mg/kg (GTL 16 cell line [23]): 75%
inhibition (GTL 16 [24]): Dose-Dependent Effect

— ChEMBL document CHEMBL5661982 (Mol Cancer Ther, 2012)
